These results are taken from patent publication US10202360B2 (CELGENE QUANTICEL RESEARCH, INC., priority 2016, dated 2019).

Some results are limits rather than exact numbers.

The target of the assay is CREBBP (Homo sapiens (Human), UniProt Q92793). As to the kind of experiment: In vitro enzyme inhibition assay - CREBBP inhibition (AlphaScreen, biotinylated H4-tetraacetyl peptide). It counts as binding. Conditions: Table 28; AlphaScreen, H4-tetraacetyl peptide. Here is the method: Determination of the IC50 for the CREBBP inhibitors disclosed herein was performed as follows: CREBBP was cloned and expressed in E. Coli as His-tag protein and purified by Nickel affinity and gel-filtration chromatography. […] CREBBP binding and inhibition was assessed by monitoring the interaction of biotinylated H4-tetraacetyl peptide (AnaSpec, H4K5/8/12/16(Ac), biotin-labeled) with the target using the AlphaScreen technology (Perkin Elmer). In a 384-well ProxiPlate CREBBP (50 nM final) was combined with peptide (20 nM final) in 50 mM HEPES (pH 7.3), 10 mM NaCl, 0.25 mM TCEP, 0.1% (w/v) BSA, and 0.005% (w/v) Brij-35 either in the presence of DMSO (final 0.4% DMSO) or compound dilution series in DMSO. After 20-minute incubation at room temperature, Alpha streptavidin donor beads and Nickel Chelate acceptor beads were added to a final concentration of 5 μg/mL. After two hours of equilibration, plates were read on an Envision instrument and the IC50 was calculated using a four parameter non-linear curve fit.
The ability of the compounds disclosed herein to inhibit CBP activity was quantified and the respective IC50 value was determined.
For orientation: Bead proximity is the source of the signal in Alpha formats.

Sequence of CREBBP (Q92793 1081-1197): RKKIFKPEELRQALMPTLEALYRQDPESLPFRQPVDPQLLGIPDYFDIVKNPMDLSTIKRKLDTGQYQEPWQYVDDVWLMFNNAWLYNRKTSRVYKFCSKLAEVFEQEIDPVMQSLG

The compound `CCCCS(=O)(=O)Nc1cc(-c2cc(C)c(=O)n(C)c2)nc(Oc2ccccc2Cl)n1` [Example 16, Butane-1-sulfonic acid [2-(2-chloro-phenoxy)-6-(1,5-dimethyl-6-oxo-1,6-dihydro-pyridin-3-yl)-pyrimidin-4-yl]-amide] showed a half-maximal inhibitory concentration (IC50) of under 500 nM.
As to `Cc1cc(-c2cc(NS(=O)(=O)C(C)C)nc(Oc3c(F)cccc3F)n2)cn(C)c1=O` [Example 17, Propane-2-sulfonic acid [2-(2,6-difluoro-phenoxy)-6-(1,5-dimethyl-6-oxo-1,6-dihydro-pyridin-3-yl)-pyrimidin-4-yl]-amide], the half-inhibitory concentration (IC50) is under 500 nM.
In the case of `CCCCS(=O)(=O)Nc1cc(-c2cc(C)c(=O)n(C)c2)nc(Oc2c(F)cccc2F)n1` [Example 18, Butane-1-sulfonic acid [2-(2,6-difluoro-phenoxy)-6-(1,5-dimethyl-6-oxo-1,6-dihydro-pyridin-3-yl)-pyrimidin-4-yl]-amide] it was under 500 nM; in that of `CCCCS(=O)(=O)Nc1cc(-c2cc(C)c(=O)n(C)c2)nc(Oc2c(C)cccc2F)n1` [Example 19, Butane-1-sulfonic acid [6-(1,5-dimethyl-6-oxo-1,6-dihydro-pyridin-3-yl)-2-(2-fluoro-6-methyl-phenoxy)-pyrimidin-4-yl]-amide], under 500 nM.
Take `CCCS(=O)(=O)Nc1cc(-c2cc(C)c(=O)n(C)c2)nc(Oc2c(F)cccc2F)n1` [Example 20, Propane-1-sulfonic acid [2-(2,6-difluoro-phenoxy)-6-(1,5-dimethyl-6-oxo-1,6-dihydro-pyridin-3-yl)-pyrimidin-4-yl]-amide]: the IC50 is under 500 nM.
Next, `CCCS(=O)(=O)Nc1cc(-c2cc(C)c(=O)n(C)c2)nc(Oc2c(C)cccc2F)n1` [Example 21, Propane-1-sulfonic acid [6-(1,5-dimethyl-6-oxo-1,6-dihydro-pyridin-3-yl)-2-(2-fluoro-6-methyl-phenoxy)-pyrimidin-4-yl]-amide]: under 500 nM; `CCCCS(=O)(=O)Nc1cc(-c2cc(C)c(=O)n(C)c2)nc(Oc2c(C)cccc2C#N)n1` [Example 22, Butane-1-sulfonic acid [2-(2-cyano-6-methyl-phenoxy)-6-(1,5-dimethyl-6-oxo-1,6-dihydro-pyridin-3-yl)-pyrimidin-4-yl]-amide]: under 500 nM.
Take `CCCS(=O)(=O)Nc1cc(-c2cc(C)c(=O)n(C)c2)nc(Oc2c(C)cccc2C#N)n1` [Example 23, Propane-1-sulfonic acid [2-(2-cyano-6-methyl-phenoxy)-6-(1,5-dimethyl-6-oxo-1,6-dihydro-pyridin-3-yl)-pyrimidin-4-yl]-amide]: the IC50 is under 500 nM.
In the case of `Cc1cccc(C#N)c1Oc1nc(NS(=O)(=O)C(C)C)cc(-c2cc(C)c(=O)n(C)c2)n1` [Example 24, Propane-2-sulfonic acid [2-(2-cyano-6-methyl-phenoxy)-6-(1,5-dimethyl-6-oxo-1,6-dihydro-pyridin-3-yl)-pyrimidin-4-yl]-amide] it was under 500 nM; in that of `Cc1cc(Cl)cc(Cl)c1Oc1nc(NS(C)(=O)=O)cc(-c2cc(C)c(=O)n(C)c2)n1` [Example 25, N-[2-(2,4-Dichloro-6-methyl-phenoxy)-6-(1,5-dimethyl-6-oxo-1,6-dihydro-pyridin-3-yl)-pyrimidin-4-yl]-methanesulfonamide], under 500 nM; in that of `CCS(=O)(=O)Nc1cc(-c2cc(C)c(=O)n(C)c2)nc(Oc2c(C)cc(Cl)cc2Cl)n1` [Example 26, Ethanesulfonic acid [2-(2,4-dichloro-6-methyl-phenoxy)-6-(1,5-dimethyl-6-oxo-1,6-dihydro-pyridin-3-yl)-pyrimidin-4-yl]-amide], under 500 nM.
Next, `CCCS(=O)(=O)Nc1cc(-c2cc(C)c(=O)n(C)c2)nc(Oc2c(C)cc(Cl)cc2Cl)n1` [Example 27, Propane-1-sulfonic acid [2-(2,4-dichloro-6-methyl-phenoxy)-6-(1,5-dimethyl-6-oxo-1,6-dihydro-pyridin-3-yl)-pyrimidin-4-yl]-amide]: under 500 nM; `CCCCS(=O)(=O)Nc1cc(-c2cc(C)c(=O)n(C)c2)nc(Oc2c(C)cc(Cl)cc2Cl)n1` [Example 28, Butane-1-sulfonic acid [2-(2,4-dichloro-6-methyl-phenoxy)-6-(1,5-dimethyl-6-oxo-1,6-dihydro-pyridin-3-yl)-pyrimidin-4-yl]-amide]: under 500 nM; `Cc1cc(Cl)cc(Cl)c1Oc1nc(NS(C)(=O)=O)cc(-c2ccc(=O)n(C)c2)n1` [Example 29, N-[2-(2,4-Dichloro-6-methyl-phenoxy)-6-(1-methyl-6-oxo-1,6-dihydro-pyridin-3-yl)-pyrimidin-4-yl]-methanesulfonamide]: under 500 nM.
In the case of `CCS(=O)(=O)Nc1cc(-c2ccc(=O)n(C)c2)nc(Oc2c(C)cc(Cl)cc2Cl)n1` [Example 30, Ethanesulfonic acid [2-(2,4-dichloro-6-methyl-phenoxy)-6-(1-methyl-6-oxo-1,6-dihydro-pyridin-3-yl)-pyrimidin-4-yl]-amide] it was under 500 nM; in that of `CCCS(=O)(=O)Nc1cc(-c2ccc(=O)n(C)c2)nc(Oc2c(C)cc(Cl)cc2Cl)n1` [Example 31, Propane-1-sulfonic acid [2-(2,4-dichloro-6-methyl-phenoxy)-6-(1-methyl-6-oxo-1,6-dihydro-pyridin-3-yl)-pyrimidin-4-yl]-amide], under 500 nM.
Compound `CCCCS(=O)(=O)Nc1cc(-c2ccc(=O)n(C)c2)nc(Oc2c(C)cc(Cl)cc2Cl)n1` [Example 32, Butane-1-sulfonic acid [2-(2,4-dichloro-6-methyl-phenoxy)-6-(1-methyl-6-oxo-1,6-dihydro-pyridin-3-yl)-pyrimidin-4-yl]-amide] registered a half-maximal inhibitory concentration (IC50) of under 500 nM.
Next, `Cc1cc(Cl)cc(Cl)c1Oc1nc(NS(=O)(=O)C(C)C)cc(-c2ccc(=O)n(C)c2)n1` [Example 34, Propane-2-sulfonic acid [2-(2,4-dichloro-6-methyl-phenoxy)-6-(1-methyl-6-oxo-1,6-dihydro-pyridin-3-yl)-pyrimidin-4-yl]-amide]: under 500 nM; `CCCCS(=O)(=O)Nc1cc(-c2cc(C)c(=O)n(C)c2)nc(Oc2cc(OC)ccc2C#N)n1` [Example 35, Butane-1-sulfonic acid [2-(2-cyano-5-methoxy-phenoxy)-6-(1,5-dimethyl-6-oxo-1,6-dihydro-pyridin-3-yl)-pyrimidin-4-yl]-amide]: under 500 nM.
Next, `CCCCS(=O)(=O)Nc1cc(-c2cc(C)c(=O)n(C)c2)nc(Oc2cc(C)ccc2C#N)n1` [Example 36, Butane-1-sulfonic acid [2-(2-cyano-5-methyl-phenoxy)-6-(1,5-dimethyl-6-oxo-1,6-dihydro-pyridin-3-yl)-pyrimidin-4-yl]-amide]: under 500 nM.
Next, `CCCCS(=O)(=O)Nc1cc(-c2cc(C)c(=O)n(C)c2)nc(Oc2ccccc2C#N)n1` [Example 37, Butane-1-sulfonic acid [2-(2-cyano-phenoxy)-6-(1,5-dimethyl-6-oxo-1,6-dihydro-pyridin-3-yl)-pyrimidin-4-yl]-amide]: under 500 nM.
As to `CCCCS(=O)(=O)Nc1cc(-c2cc(C)c(=O)n(C)c2)nc(Oc2cc(C(C)C)ccc2Cl)n1` [Example 38, Butane-1-sulfonic acid [2-(2-chloro-5-isopropyl-phenoxy)-6-(1,5-dimethyl-6-oxo-1,6-dihydro-pyridin-3-yl)-pyrimidin-4-yl]-amide], the IC50 was under 500 nM.
The compound `CCCS(=O)(=O)Nc1cc(-c2cc(C)c(=O)n(C)c2)nc(Oc2cc(C(C)C)ccc2Cl)n1` [Example 39, Propane-1-sunnic acid [2-(2-chloro-5-isopropyl-phenoxy)-6-(1,5-dimethyl-6-oxo-1,6-dihydro-pyridin-3-yl)-pyrimidin-4-yl]-amide] had a half-inhibitory concentration (IC50) of under 500 nM.
In the case of `Cc1cc(-c2cc(NS(=O)(=O)C(C)C)nc(Oc3cc(C(C)C)ccc3Cl)n2)cn(C)c1=O` [Example 40, Propane-2-sulfonic acid [2-(2-chloro-5-isopropyl-phenoxy)-6-(1,5-dimethyl-6-oxo-1,6-dihydro-pyridin-3-yl)-pyrimidin-4-yl]-amide] it was under 500 nM.
Next, `CCCS(=O)(=O)Nc1cc(-c2cc(C)c(=O)n(C)c2)nc(Oc2c(Cl)cccc2CC)n1` [Example 42, Propane-1-sulfonic acid [2-(2-chloro-6-ethyl-phenoxy)-6-(1,5-dimethyl-6-oxo-1,6-dihydro-pyridin-3-yl)-pyrimidin-4-yl]-amide]: under 500 nM; `CCc1cccc(Cl)c1Oc1nc(NS(=O)(=O)C(C)C)cc(-c2cc(C)c(=O)n(C)c2)n1` [Example 43, Propane-2-sulfonic acid [2-(2-chloro-6-ethyl-phenoxy)-6-(1,5-dimethyl-6-oxo-1,6-dihydro-pyridin-3-yl)-pyrimidin-4-yl]-amide]: under 500 nM.
In the case of `CCn1cc(-c2cc(NS(=O)(=O)C(C)C)nc(Oc3ccc(F)cc3F)n2)cc(C)c1=O` [Example 44, Propane-2-sulfonic acid [2-(2,4-difluoro-phenoxy)-6-(1-ethyl-5-methyl-6-oxo-1,6-dihydro-pyridin-3-yl)-pyrimidin-4-yl]-amide], the IC50 was under 500 nM.
Turning to `CCCn1cc(-c2cc(NS(=O)(=O)C(C)C)nc(Oc3ccc(F)cc3F)n2)cc(C)c1=O` [Example 45, Propane-2-sulfonic acid [2-(2,4-difluoro-phenoxy)-6-(5-methyl-6-oxo-1-propyl-1,6-dihydro-pyridin-3-yl)-pyrimidin-4-yl]-amide], the half-maximal inhibitory concentration (IC50) was in the range of 500 to 5000 nM.

Usually IC50 stands for the concentration at which inhibition is half-maximal. A lower IC50 goes with inhibition by little substance.
